“Also recorded” adds a separate entry of the source.
Legend:
[1] = target: T1, WDR5 (Homo sapiens, UniProt P61964); assay: Screening of putative WDR5 degraders by Western blot in MV4;11 and/or MIAPACA2 cells; format: cell-based; design: After WDR5 degrader treatment, cells were collected and lysed; endogenous in cells; host or cells: MV4;11 and/or MIAPACA2; details: summary of screening, FIGS. 6-10
Outline: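 MV4;11 (1×10^6/well) or MIAPACA2 (1×10^5/well) cells treated 18 h with compound at paired doses between 0.1 and 10 μM, DMSO as control. Total lysates immunoblotted for WDR5 with vinculin, tubulin or GAPDH loading controls; fluorescent secondary detection.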

[2] = target: T1, WDR5; assay: Western blot of WDR5 protein levels in MIAPACA2 cells; format: cell-based; design: After WDR5 degrader treatment, cells were collected and lysed; endogenous in cells; host or cells: MV4;11 and/or MIAPACA2; details: 18 h; for reduction of WDR5 protein levels, concentration-dependent: MIAPACA2 cells, 0.1, 0.5, 1, 5 and 10 μM, FIG. 5
Description: MIAPACA2 cells were treated with DMSO or indicated compounds at 0.1 μM, 0.5 μM, 1 μM, 5 μM, and 10 μM for 18 hours.
MIAPACA2 cells were treated with DMSO or indicated compounds at 0.5 μM and 1.0 μM for 18 hours.
MIAPACA2 cells were treated with DMSO or indicated compounds at 0.1 μM and 0.5 μM for 18 hours.
MIAPACA2 cells were treated with DMSO or indicated compounds at 0.5 μM and 1.0 μM or at 1.0 μM and 10 μM for 18 hours.
(§1) MIAPACA2 and Hela cells were cultured in DMEM supplemented with 10% FBS and 1% Penicillin/Streptomycin.
WDR5 degraders were dissolved in DMSO and DMSO with no degraders was used as the control. 1×10^6 MV4;11 cells or 1×10^5 MIAPACA2 or 2×10^5 Hela cells were seeded in 2 mL medium for each well in […].
For prescreening of all the compounds, each test compound was added to the medium at indicated concentrations. After 18 h treatment, cells were collected.
After WDR5 degrader treatment, cells were collected and lysed. Total cell lysates were used for western blot. The following primary antibodies were used: WDR5 (Santa Cruz), vinculin (Cell Signaling Technology), tubulin (Cell Signaling Technology), GAPDH (Santa Cruz). Blots were imaged using fluorescence-labeled secondary antibodies on ChemiDoc™ Imaging Systems.

[3] = target: T1, WDR5; details: MV4;11 cells, summary of FIGS. 1-3
Description: MV4;11 cells were treated with DMSO or indicated compounds at 1 μM and 10 μM for 18 hours.
MV4;11 cells were treated with DMSO or indicated compounds at 0.1 μM, 0.5 μM, 1 μM, 5 μM, and 10 μM for 18 hours.
MV4;11 cells were treated with DMSO or indicated compounds at a fixed concentration of 0.5 μM for 1, 2, 4, 8, 16, or 24 hours.
MV4;11 cells were treated with DMSO or indicated compounds at 0.1 μM and 0.5 μM for 18 hours. […] MV4;11 cells were treated with DMSO or indicated compounds at 0.1 μM and 1.0 μM for 18 hours.
WDR5 degraders were dissolved in DMSO and DMSO with no degraders was used as the control. 1×10^6 MV4;11 cells or 1×10^5 MIAPACA2 or 2×10^5 Hela cells were seeded in 2 mL medium for each well in 24-well plates.
And cells were collected at indicated timepoints: 1 h, 2 h, 4 h, 8 h, 16 h, and 24 h.

[4] = tested on: MIAPACA2 cells; assay: MTT cell proliferation assay in MIAPACA2 cells; format: cell-based; details: 0.01, 0.03, 0.1, 0.5, 1, 5 and 10 μM, 6 days, FIG. 11
Description: Assessment of the cell proliferation effects of WDR5 degraders XF056-132, XF056-173 and XF067-67 in MIAPACA2 cells (FIG. 11). MIAPACA2 cells were treated with DMSO or indicated compounds at 0.01 μM, 0.03 μM, 0.1 μM, 0.5 μM, 1 μM, 5 μM, and 10 μM for 6 days. MTT assay was used for detecting cell proliferation effects.
as §1

[5] = tested on: MV4;11 cells; assay: Cell viability assay (trypan blue, live cell count) in MV4;11 cells; format: cell-based; details: 0.1, 0.5, 1, 5 and 10 μM, 72 h, FIG. 4
Description: MV4;11 cells were treated with DMSO or the indicated compounds at indicated concentration of 0.1 μM, 0.5 μM, 1 μM, 5 μM, and 10 μM for 72 hours.
MV4;11 cells were purchased from ATCC and cultured in RPMI 1640 supplemented with 10% FBS and 1% Penicillin/Streptomycin.
0.5×10^6 MV4;11 cells were seeded in 2 mL medium for each well in 12-well plates. WDR5 degraders in DMSO were added to the medium at indicated concentrations. DMSO was used as the control. Each treatment was done in duplicate wells. After 72 h treatment, 1 part cell suspension from each treatment was mixed with 1 part 0.4% trypan blue respectively. The mixture was allowed to incubate for ˜3 min at room temperature and live cells were counted by automated cell counter.

Structure (SMILES) | effective degradation of WDR5 in MV4;11 and/or MIAPACA2 cells [1] | reduction of WDR5 protein levels, concentration-dependent [2] | reduction of WDR5 protein levels in a concentration- and time-dependent manner [3] | further results
CN1CCN(c2ccc(-c3cccc(CN4CCN(CCNC(=O)CCOCCOCCOCCOCCOCCNc5cccc6c5C(=O)N(C5CCC(=O)NC5=O)C6=O)CC4)c3)cc2NC(=O)c2c[nH]c(=O)cc2C(F)(F)F)CC1 (stereo not shown) [XF048-145, N-(3′-((4-(1-((2-(2,6-dioxopiperidin-3-yl)-1,3-dioxoisoindolin-4-yl)amino)-18-oxo-3,6,9,12,15-pentaoxa-19-azahenicosan-21-yl)piperazin-1-yl)methyl)-4-(4-methylpiperazin-1-yl)-[1,1′-biphenyl]-3-yl)-6-oxo-4-(trifluoromethyl)-1,6-dihydropyridine-3-carboxamide] | – | – | effective in reducing WDR5 protein levels | –
Cc1ncsc1-c1ccc(CNC(=O)[C@@H]2C[C@@H](O)CN2C(=O)[C@@H](NC(=O)CNC(=O)c2ccc(F)c(-c3ccc(N4C[C@@H](C)N(C)[C@@H](C)C4)c(NC(=O)c4c[nH]c(=O)cc4C(F)(F)F)c3)c2)C(C)(C)C)cc1 [XF056-132, N-(2′-fluoro-5′-((2-(((S)-1-((2S,4R)-4-hydroxy-2-((4-(4-methylthiazol-5-yl)benzyl)carbamoyl)pyrrolidin-1-yl)-3,3-dimethyl-1-oxobutan-2-yl)amino)-2-oxoethyl)carbamoyl)-4-((3R,5S)-3,4,5-trimethylpiperazin-1-yl)-[1,1′-biphenyl]-3-yl)-6-oxo-4-(trifluoromethyl)-1,6-dihydropyridine-3-carboxamide] | able to effectively degrade WDR5 | – | – | proliferation of MIAPACA2 cells [4]: significantly decreased the cell proliferation; also recorded: significantly reduced the proliferation of MIAPACA2 cells; degradation of WDR5 ([2]; MIAPACA2 cells, 0.1 μM and 0.5 μM, FIG. 8A-8C): can effectively degrade WDR5 at 0.1 μM and 0.5 μM
CN1CCN(c2ccc(-c3cccc(CN4CCN(CCNC(=O)CCOCCOCCNc5cccc6c5C(=O)N(C5CCC(=O)NC5=O)C6=O)CC4)c3)cc2NC(=O)c2c[nH]c(=O)cc2C(F)(F)F)CC1 (stereo not shown) [XF048-142, N-(3′-((4-(2-(3-(2-(2-((2-(2,6-dioxopiperidin-3-yl)-1,3-dioxoisoindolin-4-yl)amino)ethoxy)ethoxy)propanamido)ethyl)piperazin-1-yl)methyl)-4-(4-methylpiperazin-1-yl)-[1,1′-biphenyl]-3-yl)-6-oxo-4-(trifluoromethyl)-1,6-dihydropyridine-3-carboxamide] | – | – | effective in reducing WDR5 protein levels | –

Further lines, with some results ahead:

effective degradation of WDR5 in MV4;11 and/or MIAPACA2 cells [1] | reduction of WDR5 protein levels, concentration-dependent [2] | Structure (SMILES) | reduction of WDR5 protein levels in a concentration- and time-dependent manner [3] | further results
able to effectively degrade WDR5 | – | Cc1ncsc1-c1ccc([C@H](C)NC(=O)[C@@H]2C[C@@H](O)CN2C(=O)[C@@H](NC(=O)CCCCCCCCCC(=O)NCCN2CCN(Cc3cccc(-c4ccc(N5CCN(C)CC5)c(NC(=O)c5c[nH]c(=O)cc5C(F)(F)F)c4)c3)CC2)C(C)(C)C)cc1 [XF050-166, N^1-((S)-1-((2S,4R)-4-hydroxy-2-(((S)-1-(4-(4-methylthiazol-5-yl)phenyl)ethyl)carbamoyl)pyrrolidin-1-yl)-3,3-dimethyl-1-oxobutan-2-yl)-N^11-(2-(4-((4′-(4-methylpiperazin-1-yl)-3′-(6-oxo-4-(trifluoromethyl)-1,6-dihydropyridine-3-carboxamido)-[1,1′-biphenyl]-3-yl)methyl)piperazin-1-yl)ethyl)undecanediamide] | – | WDR5 degradation effects ([2]; MIAPACA2 cells, 0.5 μM and 1.0 μM, FIG. 7): better WDR5 degradation effects than XF048-132 and XF048-140
able to effectively degrade WDR5 | reduced WDR5 protein levels | CN1CCN(c2ccc(-c3cccc(CN4CCN(CCNC(=O)CCCCCCCNc5cccc6c5C(=O)N(C5CCC(=O)NC5=O)C6=O)CC4)c3)cc2NC(=O)c2c[nH]c(=O)cc2C(F)(F)F)CC1 (stereo not shown) [XF048-140, N-(3′-((4-(2-(8-((2-(2,6-dioxopiperidin-3-yl)-1,3-dioxoisoindolin-4-yl)amino)octanamido)ethyl)piperazin-1-yl)methyl)-4-(4-methylpiperazin-1-yl)-[1,1′-biphenyl]-3-yl)-6-oxo-4-(trifluoromethyl)-1,6-dihydropyridine-3-carboxamide] | – | –
able to effectively degrade WDR5 | reduced WDR5 protein levels | Cc1ncsc1-c1ccc(CNC(=O)[C@@H]2C[C@@H](O)CN2C(=O)[C@@H](NC(=O)CCCCCCCCCC(=O)NCCN2CCN(Cc3cccc(-c4ccc(N5CCN(C)CC5)c(NC(=O)c5c[nH]c(=O)cc5C(F)(F)F)c4)c3)CC2)C(C)(C)C)cc1 [XF048-133, N^1-((S)-1-((2S,4R)-4-hydroxy-2-((4-(4-methylthiazol-5-yl)benzyl)carbamoyl)pyrrolidin-1-yl)-3,3-dimethyl-1-oxobutan-2-yl)-N^11-(2-(4-((4′-(4-methylpiperazin-1-yl)-3′-(6-oxo-4-(trifluoromethyl)-1,6-dihydropyridine-3-carboxamido)-[1,1′-biphenyl]-3-yl)methyl)piperazin-1-yl)ethyl)undecanediamide] | effective in reducing WDR5 protein levels | viability of MV4;11 cells [5]: reduced the viability of MV4;11 cells much more significantly than the WDR5 inhibitor OICR-9429; also recorded: reduced the viability of MV4;11 cells much more significantly than the WDR5 inhibitor OICR-9419
